Reference: patent publication US6737383B1, “Herbicidal oxadiazolidines” (priority 1999, dated 2004)

Legend:
morningglory = test: Test B pre/postemergence morningglory; format: in vivo, Ipomoea hederacea
Summary of the method: (§1)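 Herbicidal effect was estimated by eye on a ten-point control scale after plants spent twelve to sixteen days in a greenhouse following soil or foliar treatment. Foliar sprays targeted plants at one to four leaves; all doses were formulated in a non-phytotoxic solvent with surfactant.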

smallflower flatsedge = test: Test B flood test smallflower flatsedge; format: in vivo, Cyperus difformis
Summary of the method: (§2)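 Read-out is a visual response score from 0 (no effect) to 10 (complete control), assigned by comparison with untreated controls. Treatment was applied at the 2-leaf stage, and plants stayed in the greenhouse for twelve to sixteen days before scoring.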

wheat = test: Test B pre/postemergence wheat; format: in vivo, Triticum aestivum
Summary of the method: as §1

crabgrass = test: Test B pre/postemergence crabgrass; format: in vivo, Digitaria sanguinalis
Summary of the method: as §1

blackgrass = test: Test B pre/postemergence blackgrass; format: in vivo, Alopecurus myosuroides
Summary of the method: as §1

purple nutsedge = test: Test B pre/postemergence purple nutsedge; format: in vivo, Cyperus rotundus
Summary of the method: as §1

duck salad = test: Test B flood test duck salad; format: in vivo, Heteranthera limosa
Summary of the method: as §2

velvetleaf = test: Test B pre/postemergence velvetleaf; format: in vivo, Abutilon theophrasti
Summary of the method: as §1

bamyardgrass = test: Test B flood test barnyardgrass; format: in vivo, Echinochloa crus-galli
Summary of the method: as §2

cocklebur = test: Test B pre/postemergence cocklebur; format: in vivo, Xanthium strumarium
Summary of the method: as §1

corn = test: Test B pre/postemergence corn; format: in vivo, Zea mays
Summary of the method: as §1

giant foxtail = test: Test B pre/postemergence giant foxtail; format: in vivo, Setaria faberii
Summary of the method: as §1

wild oat = test: Test B pre/postemergence wild oat; format: in vivo, Avena fatua
Summary of the method: as §1

rice = test: Test B flood test rice; format: in vivo, Oryza sativa
Summary of the method: as §2

soybean = test: Test B pre/postemergence soybean; format: in vivo, Glycine max
Summary of the method: as §1

bedstraw = test: Test B pre/postemergence bedstraw; format: in vivo, Galium aparine
Summary of the method: as §1

surinam grass = test: Test B pre/postemergence surinam grass; format: in vivo, Brachiaria decumbens
Summary of the method: as §1

[1] = Preemergence, Rate 62 g/ha, scale of 0 to 10 where 0 is no effect and 10 is complete control
[2] = Preemergence, Rate 250 g/ha, scale of 0 to 10 where 0 is no effect and 10 is complete control
[3] = Preemergence, Rate 500 g/ha, scale of 0 to 10 where 0 is no effect and 10 is complete control
[4] = Rate 62 g/ha, Postemergence, scale 0 to 10 (0 no effect, 10 complete control)
[5] = Rate 125 g/ha, Postemergence, scale of 0 to 10 where 0 is no effect and 10 is complete control
[6] = Rate 125 g/ha, Preemergence, scale of 0 to 10 where 0 is no effect and 10 is complete control
[7] = Rate 250 g/ha, Postemergence, scale of 0 to 10 where 0 is no effect and 10 is complete control
[8] = Rate 62 g/ha, headed Pre-emergence (flood test species), scale 0 to 10 (0 no effect, 10 complete control)
[9] = Rate 125 g/ha, Pre-emergence, flood test species, scale 0 to 10 where 0 is no effect and 10 is complete control
[10] = Rate 250 g/ha, Pre-emergence, flood-test species, scale 0 to 10, 0 is no effect, 10 is complete control
[11] = Rate 500 g/ha, Pre-emergence, flood test species, scale 0 to 10 (0 no effect, 10 complete control)
[12] = Rate 500 g/ha, Postemergence, scale 0 to 10, 0 no effect, 10 complete control

SMILES: CC(C)N(C(=O)n1oc(=O)n(C2CCCC2)c1=O)c1ccc(F)cc1F [Compound 284]
- Morningglory plant response rating (morningglory; [1]): 0
- Morningglory plant response rating (morningglory; [2]): 1
- Plant response rating, Morningglory (morningglory; [3]): 2
- Morningglory plant response rating (morningglory; [4]): 7
- Morningglory plant response rating (morningglory; [5]): 7
- Morningglory plant response rating (morningglory; [6]): 1
- Plant response rating, Morningglory (morningglory; [7]): 7
- S. Flatsedge plant response rating (smallflower flatsedge; [8]): 0
- S. Flatsedge plant response rating (smallflower flatsedge; [9]): 0
- S. Flatsedge plant response rating (smallflower flatsedge; [10]): 0
- S. Flatsedge plant response rating (smallflower flatsedge; [11]): 0
- Wheat plant response rating (wheat; [1]): 0
- Wheat plant response rating (wheat; [2]): 0
- Plant response rating, Wheat (wheat; [3]): 0
- Wheat plant response rating (wheat; [4]): 0
- Wheat plant response rating (wheat; [5]): 0
- Wheat plant response rating (wheat; [6]): 0
- Plant response rating, Wheat (wheat; [7]): 0
- Crabgrass plant response rating (crabgrass; [1]): 4
- Crabgrass plant response rating (crabgrass; [2]): 8
- Plant response rating, Crabgrass (crabgrass; [3]): 9
- Crabgrass plant response rating (crabgrass; [4]): 0
- Crabgrass plant response rating (crabgrass; [5]): 1
- Crabgrass plant response rating (crabgrass; [6]): 4
- Plant response rating, Crabgrass (crabgrass; [7]): 1
- Blackgrass plant response rating (blackgrass; [1]): 0
- Blackgrass plant response rating (blackgrass; [2]): 8
- Plant response rating, Blackgrass (blackgrass; [3]): 10
- Blackgrass plant response rating (blackgrass; [4]): 3
- Blackgrass plant response rating (blackgrass; [5]): 5
- Blackgrass plant response rating (blackgrass; [6]): 4
- Plant response rating, Blackgrass (blackgrass; [7]): 7
- Blackgrass plant response rating (blackgrass; [12]): 8
- Nutsedge plant response rating (purple nutsedge; [1]): 0
- Nutsedge plant response rating (purple nutsedge; [2]): 0
- Plant response rating, Nutsedge (purple nutsedge; [3]): 0
- Nutsedge plant response rating (purple nutsedge; [4]): 0
- Nutsedge plant response rating (purple nutsedge; [5]): 0
- Nutsedge plant response rating (purple nutsedge; [6]): 0
- Plant response rating, Nutsedge (purple nutsedge; [7]): 0
- Ducksalad plant response rating (duck salad; [8]): 0
- Ducksalad plant response rating (duck salad; [9]): 0
- Ducksalad plant response rating (duck salad; [10]): 0
- Ducksalad plant response rating (duck salad; [11]): 0
- Velvetleaf plant response rating (velvetleaf; [1]): 0
- Velvetleaf plant response rating (velvetleaf; [2]): 0
- Plant response rating, Velvetleaf (velvetleaf; [3]): 7
- Velvetleaf plant response rating (velvetleaf; [4]): 0
- Velvetleaf plant response rating (velvetleaf; [5]): 0
- Velvetleaf plant response rating (velvetleaf; [6]): 0
- Plant response rating, Velvetleaf (velvetleaf; [7]): 2
- Barnyardgrass plant response rating (bamyardgrass; [8]): 0
- Barnyardgrass plant response rating (bamyardgrass; [9]): 1
- Barnyardgrass plant response rating (bamyardgrass; [10]): 4
- Barnyardgrass plant response rating (bamyardgrass; [11]): 9
- Cocklebur plant response rating (cocklebur; [1]): 0
- Plant response rating, Cocklebur (cocklebur; [3]): 0
- Cocklebur plant response rating (cocklebur; [4]): 0
- Cocklebur plant response rating (cocklebur; [5]): 2
- Plant response rating, Cocklebur (cocklebur; [7]): 2
- Cocklebur plant response rating (cocklebur; [12]): 2
- Corn plant response rating (corn; [1]): 0
- Corn plant response rating (corn; [2]): 0
- Plant response rating, Corn (corn; [3]): 0
- Corn plant response rating (corn; [4]): 0
- Corn plant response rating (corn; [5]): 0
- Corn plant response rating (corn; [6]): 0
- Plant response rating, Corn (corn; [7]): 0
- Corn plant response rating (corn; [12]): 0
- Giant foxtail plant response rating (giant foxtail; [1]): 9
- Giant foxtail plant response rating (giant foxtail; [2]): 9
- Plant response rating, Giant foxtail (giant foxtail; [3]): 10
- Giant foxtail plant response rating (giant foxtail; [4]): 0
- Giant foxtail plant response rating (giant foxtail; [5]): 2
- Giant foxtail plant response rating (giant foxtail; [6]): 9
- Plant response rating, Giant foxtail (giant foxtail; [7]): 3
- Wild oats plant response rating (wild oat; [1]): 0
- Wild oats plant response rating (wild oat; [2]): 3
- Plant response rating, Wild oats (wild oat; [3]): 5
- Wild oats plant response rating (wild oat; [4]): 0
- Wild oats plant response rating (wild oat; [5]): 0
- Plant response rating, Wild oats (wild oat; [7]): 0
- Rice plant response rating (rice; [8]): 0
- Rice plant response rating (rice; [9]): 0
- Rice plant response rating (rice; [10]): 0
- Rice plant response rating (rice; [11]): 0
- Soybean plant response rating (soybean; [1]): 0
- Soybean plant response rating (soybean; [2]): 0
- Plant response rating, Soybean (soybean; [3]): 3
- Soybean plant response rating (soybean; [4]): 4
- Soybean plant response rating (soybean; [5]): 4
- Soybean plant response rating (soybean; [6]): 0
- Plant response rating, Soybean (soybean; [7]): 4
- Bedstraw plant response rating (bedstraw; [1]): 0
- Bedstraw plant response rating (bedstraw; [2]): 8
- Plant response rating, Bedstraw (bedstraw; [3]): 8
- Bedstraw plant response rating (bedstraw; [4]): 2
- Bedstraw plant response rating (bedstraw; [5]): 5
- Bedstraw plant response rating (bedstraw; [6]): 8
- Plant response rating, Bedstraw (bedstraw; [7]): 6
- Bedstraw plant response rating (bedstraw; [12]): 9
- B. signalgrass plant response rating (surinam grass; [1]): 5
- B. signalgrass plant response rating (surinam grass; [2]): 5
- Plant response rating, B. signalgrass (surinam grass; [3]): 8
- B. signalgrass plant response rating (surinam grass; [4]): 0
- B. signalgrass plant response rating (surinam grass; [5]): 0
- B. signalgrass plant response rating (surinam grass; [6]): 5
- Plant response rating, B. signalgrass (surinam grass; [7]): 0
- B. signalgrass plant response rating (surinam grass; [12]): 1
